From US6989270B1, “Using polyamide nucleic acid oligomers to engender a biological response” (Mayo Foundation for Medical Education and Research, priority 1997, dated 2006)

Columns and labels:
morphine binding sites = assay: [3H]morphine binding in rest of brain and small intestine after i.p. AS-NTR1-PNA (Example 8); details: for Binding (% change vs control) Morphine: 24 hours after i.p. injection
[1] = test system: [125I]neurotensin binding sites (NT receptors); assay: [125I]neurotensin binding assay, small intestine (jejunum and ileum) membranal preparations of treated rats; type: in vivo, rat
Protocol: Binding assays were performed using procedures similar to those described elsewhere (Kitabgi P. et al., Peptides 5:917-923 (1984) and Ahmad S. et al., Biochim et Biophys Acta 896:224-238 (1987)).
Table II contains the results from an [^125I]neurotensin binding assay using small intestine (jejunum and ileum) membranal preparations from NTR1-PNA treated and untreated rats. The small intestine tissue was harvested from the rats 1 day after receiving a single i.p. injection of NTR1-PNA oligomers as described above. Untreated rats were used to derive control values for the percent control dpm and percent control receptors (fmol/mg). Thus, the values for untreated rats were set to 100 percent.
In addition to determining the influence of […] NTR1-PNA oligomers on anti-nociception and hypothermia, the effects of these oligomers on NT binding sites were determined using the NT receptor binding assay described in Example 1.

[2] = test system: neurotensin receptor-1 (NTR1); assay: Hot plate test of NT-mediated anti-nociception in PNA-treated rats; type: in vivo, rat
[3] = test system: neurotensin receptor-1 (NTR1); assay: as above; type: in vivo, rat; remark: listed apart in the source
Protocol: Under an Institutional Animal Care and Use Committee approved protocol and under sterile conditions male Sprague-Dawley rats (180-200 g) were stereotaxically implanted with stainless steel guide cannulae (26 gauge) into the PAG under sodium pentobarbital anesthesia (50 mg/kg, i.p.) as described in detail elsewhere (Jensen T. S. and Yaksh T. L., Brain Res. 372:301-312 (1986) and Al-Rodhan N.R.F., Brain Res. 557:227-235 (1991)). The coordinates used for PAG cannulations are -5.6 mm posterior from bregma, 1.0 mm lateral from bregma, and 5.5 mm down from the dura. The guide cannula was pre-measured to be 5.5 mm (Plastics One, Roanoke, Va.) and the internal cannula was ordered to fit below the pedestal with a 2.0 mm projection. The guide cannula was then fixed to the skull using a stainless steel screw (⅛ inch) and cranioplastic cement. A stainless steel stilette was then placed in each guide to keep it patent and free of debris. Immediately after surgery, the animals were allowed to recover before returning them to an individual housing cage. All injections began 5-7 days after surgery.
NTR1-PNA oligomers were injected, using a Hamilton digital syringe, into the PAG through the internal cannula, which extended 2 mm below the guide tip. The internal cannula was connected with a length of polyethylene tubing (PE-20) filled with saline solution. A small air bubble was introduced into the tubing to separate the saline from a solution containing 1.3 nmol of NTR1-PNA oligomers in artificial cerebral-spinal fluid (ACSF). The volume of the solution containing the NTR1-PNA oligomers was about 1.0 μl. The bubble was used to confirm the movement of this solution through the polyethylene tubing.
NTR1-PNA oligomers were injected into the PAG of each rat three times, on days -4, -2, and 0. Controls included rats receiving no injections, rats receiving injections of ACSF only, and rats receiving PNA oligomers having sequence specificity for an unrelated polypeptide, the mu-1 morphine receptor (MU1R). The sequence of MU1R-PNA is 5′-[…]-3′ (SEQ ID NO: 2).
The injection of NT in the PAG of rats produces a potent anti-nociceptive response as well as hypothermia. These responses are mediated by specific NT receptors and are not inhibited by naloxone. A very sensitive and reliable hot plate test was used to measure the anti-nociceptive effects of NT (Al-Rodhan N.R.F., Brain Res. 557:227-235 (1991)).
NTR1-PNA, MU1R-PNA, and ACSF treated as well as untreated rats were analyzed using the hot plate test for NT. One day after the last treatment, each rat was analyzed as follows. Fifteen minutes prior to testing, a pre-drug latency measurement was made by placing the rat on a hot plate maintained at a temperature of 52±0.15° C. and recording the time elapsed before the rat licked either of its hindpaws. In addition, the temperature of the rat was taken using a thermister probe inserted 3 cm in the rectum to determine the pre-drug body temperature (BT). After making these measurement, an appropriate dose of NT (18 nmol) at a volume of about 0.5 ul was administered into the PAG as described above. Thirty minutes after administering NT, the rat was again placed on a hot plate maintained at a temperature of 52±0.15° C. and the latency between the time the rat was placed on the surface and the time it licked either of its hindpaws was measured. […] Hot plate tests were scored as the percent of maximum possible effect (% MPE) and calculated using the following equation: % MPE=[(post-drug latency−pre-drug latency)/(cut-off−pre-drug latency)]×100; where the cut-off is 30 seconds. […] This average for untreated control rats was used to set the baseline MPE value to 100. Immediately after the 30 second hot plate test, BT was taken to measure NT-induced hypothermia using a thermister probe inserted 3 cm in the rectum. […] All test situations were compared to these baseline values derived from NT responsive untreated controls. […]

MU1R mRNA = assay: Quantitative RT-PCR of MU1R mRNA relative to GAPDH; type: in vivo; details: treated intracranially, 5 μg
Protocol: Messenger RNA (mRNA) levels for NTR1, MU1R, and GAPDH were measured in control and PNA-treated animals. Briefly, total RNA was isolated from approximately 20 mg of tissue using the S.N.A.P. total RNA Isolation Kit (Invitrogen, Carlsbad, Calif.). Quantitative RT-PCR was performed on treated and control animals using GAPDH as an internal standard and PCR fragments of the human NTR and of a GAPDH deletion mutant as exogenous standards. First strand cDNA was synthesized from approximately 500 ng of total RNA using the cDNA Cycle Kit (Invitrogen, Carlsbad, Calif.). PCR was performed on a GeneAmp PCR System 9600 (Perkin Elmer, Norwalk, Conn.) using end-labeled primer and TAq DNA Polymerase (Gibco-BRL, Gaithersburg, Md.). Products were separated on a 5% acrylamide gel containing 7 M urea, and detected using a Storm860 Phosphoimager (Molecular Dynamics, Sunnyvale, Calif.). Data were analyzed using ImageQuant Software (Molecular Dynamics, Sunnyvale Calif.). To control for any diurnal mRNA level fluctuations that may occur, the PNA injection time was controlled such that the tissue harvest time was identical in each animal group.

[4] = small intestine, 1 day after single i.p. injection (3 mg/kg)

Substance: NTR1-PNA: 12-mer antisense PNA oligomer to rat NTR1 coding region, 5′-CATTGCTCAAAC-3′ (SEQ ID NO: 1) (all peptide nucleic acid (PNA))
- Binding (% change vs control) Morphine (morphine binding sites; Rest of Brain): 2 ± 2 % change vs control
- Binding (% change vs control) Morphine (morphine binding sites; Small Intestine): −7 ± 8 % change vs control
- number of morphine binding sites compared to controls (morphine binding sites; rest of brain or small intestine): no significant difference
- number of receptors (mean ± SEM in fmol/mg wet wt.) ([1]; Small intestine, 24 hours after single oral 10 mg/kg): Below Detection
- % Control dpm's [1, 4]: 41 % Control
- % Control receptors [1, 4]: 2 % Control
- NT binding sites ([1]; small intestine, 24 hours after oral 10 mg/kg): completely abolished
- fewer [125I]neurotensin binding sites than untreated rats ([1]; small intestine, one day after i.p. treatment): 98%
- duration of complete lack of NT responsiveness ([2]; after single oral 10 mg/kg): at least 48 hours
- ED50 for reducing NT anti-nociception ([2]; intraperitoneal dose-response, one batch of PNA): 2.6 mg/kg
- responsiveness to NT challenge (anti-nociception and hypothermia) ([2]; one day after single i.p. injection of 3 mg/kg): unable to respond to NT challenge
- NT responsiveness ([2]; rats given single oral 10 mg/kg, Table III): LOST
- hypothermic and anti-nociceptive responses to NT ([2]; twelve hours after 10 mg/kg by gastric intubation (oral), nine rats): either completely abolished (8/9) or nearly completely abolished (1/9)
- anti-nociception score (hot plate) after NT ([3]; 10 mg/kg intraperitoneally, NT 18 nmol into PAG 24 hours later): 25 % MPE
- time until which NT-mediated anti-nociception remained significantly reduced ([3]; PNA injected into PAG on days -4, -2, 0): day five
- Responsiveness: NT (anti-nociception and hypothermia) ([3]; intraperitoneal administration, Table VI): lost
- time for responses to NT to return to baseline levels after PNA injection ([3]; single injection 10 mg/kg, tested every 24 hours with NT): ≤ 48 h
- change in MU1R/GAPDH ratio of mRNA (MU1R mRNA): no significant change
